For data set [1] the following is noted: cited from earlier work.
The test system of data set [2] is Human Tenon fibroblast cells (HTFs).
Experimental: Human Tenon fibroblast cells (HTFs) were maintained in fibroblast culture medium composed of Dulbecco's modified Eagle's medium (DMEM) supplemented with 10% (vol/vol) fetal bovine serum (FBS), 2 mM L-glutamine, 100 IU/mL penicillin, and 100 g/mL streptomycin (all from Gibco Life Technologies, Paisley, Scotland, UK) at 37°C with 5% (vol/vol) CO2 in air. The medium was changed every 3 to 4 days until cells reached confluence. The cells were passaged at a ratio of 1:4. Cultures were used between passages 3 and 10 for the gel contraction experiments.[33]
HTF cells (7 × 10^4 cells/mL) were seeded in collagen type-1 lattice (150 μL) in a Matteck dish. […] The drug solutions were added to the lattice (2 mL) at each individual concentration and incubated at 37°C. The gels were imaged daily from day 0 to day 7, and the percent contraction was calculated based on the decrease in gel area using ImageJ software (http://imagej.nih.gov/ij/; provided in the public domain by the National Institutes of Health, Bethesda, MD, USA). […] Each formulation was tested in triplicate.
Data set [3] can be described thus: Phase solubility study of ilomastat with 2-hydroxypropyl-β-cyclodextrin (HPLC). The data set is classed as physicochemical. On the procedure:
The mixture was left to stir overnight.
A flow rate of 1 mL/min was used with 0.1% trifluoroacetic acid in water and acetonitrile as eluents A and B, respectively, with a linear gradient from 80% A to 70% B in 17 minutes. The detection wavelength was 280 nm.
The mixture was left to stir overnight. Benzalkonium chloride (BAC) (0.8 mg) was then added to the mixture, and the mixture was filtered (0.22 μm PES).

The conditions of data set [4]: weak hydroxamic acid; cited from earlier work.

Converted amounts (≈) assume the structure as drawn. Read-outs that look alike come from different tables or passages of the source.

In the case of `CC(O)COC[C@H]1O[C@@H]2O[C@H]3[C@H](O)[C@@H](O)[C@@H](O[C@H]4[C@H](O)[C@@H](O)[C@@H](O[C@H]5[C@H](O)[C@@H](O)[C@@H](O[C@H]6[C@H](O)[C@@H](O)[C@@H](O[C@H]7[C@H](O)[C@@H](O)[C@@H](O[C@H]8[C@H](O)[C@@H](O)[C@@H](O[C@H]1[C@H](O)[C@H]2O)O[C@@H]8COCC(C)O)O[C@@H]7COCC(C)O)O[C@@H]6COCC(C)O)O[C@@H]5COCC(C)O)O[C@@H]4COCC(C)O)O[C@@H]3COCC(C)O` (stereo partly drawn) [2-Hydroxypropyl-β-cyclodextrin], in data set [1] (water), the water solubility was 450 mg/mL (≈ 292000 µM).
On to `CNC(=O)[C@H](Cc1c[nH]c2ccccc12)NC(=O)[C@@H](CC(=O)NO)CC(C)C` [ilomastat], for which, in data set [2] (7-day incubation), the “inhibition of collagen gel contraction (in words)” value is listed as “significantly inhibited collagen gel contraction”. Besides, in data set [2] (day 7, 0.01 μM ilomastat, HTFs in collagen, n = 3), the gel contraction is listed as 51.79% ± 2.05. Further, the “solubility in balanced salt solution” value in data set [1] (balanced salt solution, 35.5°C) is 0.161 mg/mL. For the same compound, the solubility is 0.16 mg/mL (≈ 412 µM) in data set [3] (PBS, pH 7.4, read-out: aqueous solubility in PBS (pH 7.4)) and 0.14 mg/mL (≈ 360 µM) in data set [3] (water, read-out: aqueous solubility in water). The pKa in data set [4] is 8.9.

A word on the solubility: it is the concentration that dissolves in the medium under given conditions. For orientation: pKa means the negative logarithm of the acid dissociation constant.

These data come from PMC5713897 (Investigative Ophthalmology & Visual Science, 2017).
